Patent US20230189808A1, “SELECTIVE HERBICIDES BASED ON SUBSTITUTED ISOXAZOLIN CARBOXAMIDES AND FURILAZOLE” (Bayer Aktiengesellschaft, priority 2020, published 2023)

Experiments:
ZEAMA Sileno [1] = test: Safener seed treatment with pre-emergence herbicide application, crop damage test in greenhouse; format: in vivo, maize; set-up: key to Reduction [Difference]: difference in % crop damage (visual score vs untreated control); conditions: for Reduction [%] / Reduction [Difference]: furilazole 0.25 g a.i./kg seed; for HER effect + SAF [%] / HER effect [%]: pre-emergence; for HER effect + SAF [%]: furilazole seed treatment 0.25 g a.i./kg seed; for HER effect [%]: % crop damage
Experimental: Seed Treatment; Pre-Emergence • A) Method Description
For the safener seed treatment, sufficient seeds of the respective crops (spring wheat, TRZAS; spring barley, HORVS; maize, ZEAMA) were weighed into screw top glass bottles approximately twice the volume of the seeds.
The specified safeners, formulated as wettable powder (WP) were weighed out so that the specified rates (g a·i·/kg seed) would be obtained, dissolved in water (1 ml water per 10 g of seeds), and added to the seeds to produce a slurry.
The bottles were capped and then placed in an overhead shaker (set at medium speed for ca. 60 minutes) so that the seeds were evenly coated with the slurry. The bottles were uncapped and the seeds were either placed on paper and dried for an interval of 3-4 hours prior to sowing, or directly sown. Seeds were placed in sandy loam soil in pots of a diameter of 7-8 cm, and covered with soil.
Pre-emergence application of the specified herbicides was done subsequently, on two sets of plants:
a) seed treatment with safener, as described above
The herbicides were formulated as WP and was sprayed onto the soil surface as an aqueous suspension at an equivalent water application rate of 300 1/ha.
After application, the test plants were kept in the greenhouse under good growth conditions. At intervals up to 4 weeks after application (=28 days after treatment; DAT), % crop damage observed on the treated plants was scored visually in comparison to control plants that had not received any safener or herbicide treatment.
Values in the table below are mean values of at least 2 replicates.
(§1) Plant Species, Variety: ZEAMA Sileno, Safener (SAF): Furilazole

ZEAMA Sileno [2] = test: Tank-mix post-emergence crop damage and safener test in greenhouse; format: in vivo, maize; conditions: final assessment
Experimental: Tank-Mix; Post-Emergence • A) Method Description
Seeds of crops (spring wheat, TRZAS; spring barley, HORVS; maize, ZEAMA) were placed in sandy loam soil in peat pots, covered with soil and cultivated in a greenhouse under good growth conditions. Two to three weeks after sowing, the test plants were treated at the 1 to 3-leaf stage. The herbicide/safener active compound combinations according to the invention, formulated as wettable powders or emulsion concentrates, and, in parallel tests, the correspondingly formulated individual active compounds were sprayed onto the green parts of the plants in various dosages using an amount of water of 300 1/ha (converted).
The pots were returned under good growing conditions in a glasshouse and a visual assessment of herbicidal effects was made at intervals from 1 to 3 weeks after herbicide application (DAT=days after treatment). Assessment was on a percentage basis in comparison with untreated control plants (0%=no injury, 100%=complete kill).
as §1

[3] = herbicide alone 40 g a.i./ha, 14 DAT
[4] = herbicide alone 40 g a.i./ha, 26 DAT
[5] = herbicide alone 80 g a.i./ha, 14 DAT
[6] = herbicide alone 80 g a.i./ha, 26 DAT

Row | SMILES | Reduction [%] (ZEAMA Sileno [1]; herbicide 40 g a.i./ha, 14 DAT) | Reduction [Difference] (ZEAMA Sileno [1]; herbicide 40 g a.i./ha, 14 DAT) | Reduction [%] (ZEAMA Sileno [1]; herbicide 40 g a.i./ha, 26 DAT) | Reduction [Difference] (ZEAMA Sileno [1]; herbicide 40 g a.i./ha, 26 DAT) | Reduction [%] (ZEAMA Sileno [1]; herbicide 80 g a.i./ha, 14 DAT) | Reduction [Difference] (ZEAMA Sileno [1]; herbicide 80 g a.i./ha, 14 DAT) | Reduction [%] (ZEAMA Sileno [1]; herbicide 80 g a.i./ha, 26 DAT) | Reduction [Difference] (ZEAMA Sileno [1]; herbicide 80 g a.i./ha, 26 DAT) | HER effect + SAF [%] (ZEAMA Sileno [1]; herbicide 40 g a.i./ha, 14 DAT) | HER effect + SAF [%] (ZEAMA Sileno [1]; herbicide 40 g a.i./ha, 26 DAT) | HER effect + SAF [%] (ZEAMA Sileno [1]; herbicide 80 g a.i./ha, 14 DAT) | HER effect + SAF [%] (ZEAMA Sileno [1]; herbicide 80 g a.i./ha, 26 DAT) | HER effect [%] (ZEAMA Sileno [1]; [3]) | HER effect [%] (ZEAMA Sileno [1]; [4]) | HER effect [%] (ZEAMA Sileno [1]; [5]) | HER effect [%] (ZEAMA Sileno [1]; [6]) | Reduction [%] (ZEAMA Sileno [2]; Reduction [Difference]*100/herbicide damage without safener, herbicide 32 g a.i./ha, furilazole 100 g a.i./ha) | Reduction [Difference] (ZEAMA Sileno [2]; herbicide damage without safener minus with safener, herbicide 32 g a.i./ha, furilazole 100 g a.i./ha) | HER effect + SAF [%] (ZEAMA Sileno [2]; post-emergence tank-mix, herbicide 32 g a.i./ha + furilazole 100 g a.i./ha) | HER effect [%] (ZEAMA Sileno [2]; post-emergence, herbicide alone 32 g a.i./ha, visual crop injury (0%=no injury, 100%=complete kill))
1 | C=CC1(C(=O)NC2COC(C(=O)OC)C2)CC(c2cc(F)cc(F)c2)=NO1 (mixture of isomers) [Example 1.68] | 73 | 68 | 79 | 75 | 38 | 37 | 40 | 40 | 25 | 20 | 60 | 60 | 93 | 95 | 97 | 100 | – | – | – | –
2 | COCCOC(=O)C1C=CC(NC(=O)C2(C(F)(F)F)CC(c3cc(F)cc(C#N)c3)=NO2)C1 (centres unmarked) [Example 1.2] | 63 | 25 | – | – | 100 | 45 | – | – | 15 | – | 0 | – | 40 | – | 45 | – | – | – | – | –
3 | COCCOC(=O)C1C=CC(NC(=O)C2(C)CC(c3cc(Cl)cc(C#N)c3)=NO2)C1 (centres unmarked) [Example 1.5] | – | – | – | – | 33 | 20 | 67 | 30 | – | – | 40 | 15 | – | – | 60 | 45 | – | – | – | –
4 | CSCCOC(=O)C1C=CC(NC(=O)C2(C(F)(F)F)CC(c3cc(F)cc(F)c3)=NO2)C1 (centres unmarked) [Example 1.7] | 34 | 28 | – | – | – | – | – | – | 55 | – | – | – | 83 | – | – | – | – | – | – | –
5 | C=CC1(C(=O)NC2C=CC(C(=O)OC)C2)CC(c2cc(F)cc(F)c2)=NO1 (centres unmarked) [Example 1.26] | – | – | 80 | 40 | 79 | 55 | 86 | 60 | – | 10 | 15 | 10 | – | 50 | 70 | 70 | 61 | 57 | 37 | 94
6 | CN(C)C(=O)SCCOC(=O)C1C=CC(NC(=O)C2(C)CC(c3cc(F)cc(F)c3)=NO2)C1 (centres unmarked) [Example 1.29] | – | – | – | – | 50 | 30 | – | – | – | – | 30 | – | – | – | 60 | – | – | – | – | –
7 | CC1(C(=O)NC2C=CC(C(=O)O)C2)CC(c2cc(F)cc(F)c2)=NO1 (centres unmarked) [Example 1.36] | – | – | – | – | 40 | 33 | – | – | – | – | 50 | – | – | – | 83 | – | – | – | – | –
8 | COC(=O)C1=C[C@@H](NC(=O)[C@@]2(C)CC(c3cc(F)cc(F)c3)=NO2)CC1 [Example 1.63] | 50 | 30 | 100 | 25 | – | – | – | – | 30 | 0 | – | – | 60 | 25 | – | – | – | – | – | –
9 | C=CC1(C(=O)NC2COC(C(=O)OC)C2)CC(c2cc(F)cc(F)c2)=NO1 (centres unmarked) [Example 1.69] | 37 | 35 | – | – | – | – | – | – | 60 | – | – | – | 95 | – | – | – | – | – | – | –
10 | C=CC1(C(=O)NC2COC(C(=O)OC)C2)CC(c2cc(F)cc(F)c2)=NO1 (centres unmarked) [Example 1.70] | 44 | 35 | 24 | 20 | 58 | 55 | 63 | 60 | 45 | 65 | 40 | 35 | 80 | 85 | 95 | 95 | – | – | – | –
11 | C=CC1(C(=O)NC2C=C(C(=O)OC)OC2)CC(c2cc(C)cc(C)c2)=NO1 (centres unmarked) [Example 1.90] | – | – | – | – | 80 | 20 | 100 | 30 | – | – | 5 | 0 | – | – | 25 | 30 | – | – | – | –
12 | COC(=O)[C@H]1OCC[C@@H]1NC(=O)[C@@]1(C)CC(c2cc(F)cc(F)c2)=NO1 [Example 1.92] | 100 | 75 | 86 | 60 | – | – | – | – | 0 | 10 | – | – | 75 | 70 | – | – | – | – | – | –
